Results from patent publication US9296741B2, “Bromodomain inhibitors” (priority 2012, dated 2016).

Tests used:
[1] = Mouse liver microsome stability assay; assay type: in vitro ADME; conditions: male, CD1, mouse, microsomes, pH 7.4
[2] = Rat liver microsome stability assay; assay type: in vitro ADME; conditions: rat liver microsomes (male Sprague-Dawley), 0.5 μM test compound, pH 7.4, 37° C.; for half-life at 0.5 μM: 0.25 mg/mL microsomal protein, read-out: Stability in rat liver microsomes (t1/2 in minutes); for Stability in rat liver microsomes (t1/2 in minutes): […] microsomal protein
[3] = Human liver microsome stability assay; assay type: in vitro ADME; conditions: both sexes, human, microsomes, pH 7.4
[4] = target: human BRD4 first bromodomain (BDI_K57-E168) (Homo sapiens (Human), UniProt O60885); assay: TR-FRET bromodomain binding assay, BRD4 first bromodomain
[5] = target: human BRD4 second bromodomain (BDII_E352-M457) (Homo sapiens (Human), UniProt O60885); assay: TR-FRET bromodomain binding assay, BRD4 second bromodomain
[6] = test system: breast cancer cell line MX-1; assay: MX-1 cell line proliferation assay; assay type: cell-based, human; conditions: Homo sapiens, MX1, 72 h; MX-1 cells, 3-day proliferation, Cell Titer Glo; read-out: Cellular proliferation: EC50

Structure (SMILES)	half-life at 0.5 μM [1]	half-life at 0.5 μM [2]	half-life at 0.5 μM [3]	Ki [4]	Ki [5]	EC50 [6]	Stability in rat liver microsomes (t1/2 in minutes) [2]
COc1cc(Br)ccc1-c1cn(C)c(=O)c2[nH]ccc12 [Example 241, 4-(4-bromo-2-methoxyphenyl)-6-methyl-1,6-dihydro-7H-pyrrolo[2,3-c]pyridin-7-one]	4 min	9 min	39 min				
Cn1cc(-c2cc(CN3CCOCC3)ccc2OCC2CC2)c2cc[nH]c2c1=O [Example 316, 4-[2-(cyclopropylmethoxy)-5-(morpholin-4-ylmethyl)phenyl]-6-methyl-1,6-dihydro-7H-pyrrolo[2,3-c]pyridin-7-one]	12 min	3 min	47 min				
Cn1cc(-c2ccccc2C(O)c2ccc(Cl)cc2)c2cc[nH]c2c1=O (stereo not drawn) [Example 140, 4-{2-[(4-chlorophenyl)(hydroxy)methyl]phenyl}-6-methyl-1,6-dihydro-7H-pyrrolo[2,3-c]pyridin-7-one]	18 min	13 min	19 min				
CCS(=O)(=O)N(Cc1ccccn1)c1ccc(Oc2ccc(F)cc2F)c(-c2cn(C)c(=O)c3[nH]ccc23)c1 [Example 342, N-[4-(2,4-difluorophenoxy)-3-(6-methyl-7-oxo-6,7-dihydro-1H-pyrrolo[2,3-c]pyridin-4-yl)phenyl]-N-(pyridin-2-ylmethyl)ethanesulfonamide]		5 min	2 min	71.9 nM	11.5 nM	510 nM	
CCS(=O)(=O)c1ccc(OC2CCSCC2)c(-c2cn(C)c(=O)c3[nH]ccc23)c1 [Example 264, 4-[5-(ethylsulfonyl)-2-(tetrahydro-2H-thiopyran-4-yloxy)phenyl]-6-methyl-1,6-dihydro-7H-pyrrolo[2,3-c]pyridin-7-one]		6 min	14 min	1.2 nM	1.2 nM	17.8 nM	
Cn1cc(-c2cc(C(=O)NCCc3c[nH]c4ccccc34)ccc2Oc2ccc(F)cc2F)c2cc[nH]c2c1=O [Example 133, 4-(2,4-difluorophenoxy)-N-[2-(1H-indol-3-yl)ethyl]-3-(6-methyl-7-oxo-6,7-dihydro-1H-pyrrolo[2,3-c]pyridin-4-yl)benzamide]	3 min	5 min	4 min				
CCOc1ccc(S(C)(=O)=O)cc1-c1cn(C)c(=O)c2[nH]ccc12 [Example 259, 4-[2-ethoxy-5-(methylsulfonyl)phenyl]-6-methyl-1,6-dihydro-7H-pyrrolo[2,3-c]pyridin-7-one]		87 min	117 min	24.2 nM	20.3 nM	123 nM	
CCS(=O)(=O)Nc1ccc(OC2CCOC2)c(-c2cn(C)c(=O)c3[nH]ccc23)c1 (stereo not drawn) [Example 66, N-[3-(6-methyl-7-oxo-6,7-dihydro-1H-pyrrolo[2,3-c]pyridin-4-yl)-4-(tetrahydrofuran-3-yloxy)phenyl]ethanesulfonamide]		> 120 min	> 120 min	0.74 nM	3.4 nM	33.2 nM	
Cn1cc(-c2ccccc2C(=O)c2ccc(Cl)cc2)c2cc[nH]c2c1=O [Example 139, 4-[2-(4-chlorobenzoyl)phenyl]-6-methyl-1,6-dihydro-7H-pyrrolo[2,3-c]pyridin-7-one]	7 min	8 min	13 min				
Cn1cc(-c2cc(C(=O)NCCN3CCCC3=O)ccc2Oc2ccc(F)cc2F)c2cc[nH]c2c1=O [Example 122, 4-(2,4-difluorophenoxy)-3-(6-methyl-7-oxo-6,7-dihydro-1H-pyrrolo[2,3-c]pyridin-4-yl)-N-[2-(2-oxopyrrolidin-1-yl)ethyl]benzamide]	2 min	16 min	8 min				
Cn1cc(-c2cc(C(=O)Nc3ccc4cn[nH]c4c3)ccc2Oc2ccc(F)cc2F)c2cc[nH]c2c1=O [Example 118, 4-(2,4-difluorophenoxy)-N-(1H-indazol-6-yl)-3-(6-methyl-7-oxo-6,7-dihydro-1H-pyrrolo[2,3-c]pyridin-4-yl)benzamide]	18 min	34 min	81 min				
Cn1cc(-c2cc(S(=O)(=O)NCc3cccnc3)ccc2OCC2CC2)c2cc[nH]c2c1=O [Example 333, 4-(cyclopropylmethoxy)-3-(6-methyl-7-oxo-6,7-dihydro-1H-pyrrolo[2,3-c]pyridin-4-yl)-N-(pyridin-3-ylmethyl)benzenesulfonamide]		3 min	0.8 min	36.9 nM	32.7 nM	74 nM	
Cc1cc(OCC2CC2)c(-c2cn(C)c(=O)c3[nH]ccc23)cc1NS(C)(=O)=O [Example 263, N-[4-(cyclopropylmethoxy)-2-methyl-5-(6-methyl-7-oxo-6,7-dihydro-1H-pyrrolo[2,3-c]pyridin-4-yl)phenyl]methanesulfonamide]		72 min	70 min	8.8 nM	16.3 nM	76.9 nM	
CN(C)S(=O)(=O)c1cnc(Oc2ccc(F)cc2F)c(-c2cn(C)c(=O)c3[nH]ccc23)c1 [Example 266, 6-(2,4-difluorophenoxy)-N,N-dimethyl-5-(6-methyl-7-oxo-6,7-dihydro-1H-pyrrolo[2,3-c]pyridin-4-yl)pyridine-3-sulfonamide]		20 min	8 min	21.5 nM	7.8 nM	56.4 nM	
CCS(=O)(=O)N(CC1CC1)c1ccc(Oc2ccc(F)cc2F)c(-c2cn(C)c(=O)c3[nH]ccc23)c1 [Example 343, N-(cyclopropylmethyl)-N-[4-(2,4-difluorophenoxy)-3-(6-methyl-7-oxo-6,7-dihydro-1H-pyrrolo[2,3-c]pyridin-4-yl)phenyl]ethanesulfonamide]		7 min	2 min	42.7 nM	4.8 nM	224 nM	
CCS(=O)(=O)Cc1ccc(Oc2ccc(F)cc2F)c(-c2cn(C)c(=O)c3[nH]ccc23)c1 [Example 297, 4-{2-(2,4-difluorophenoxy)-5-[(ethylsulfonyl)methyl]phenyl}-6-methyl-1,6-dihydro-7H-pyrrolo[2,3-c]pyridin-7-one]		43 min	83 min	14.2 nM	5.2 nM	18.6 nM	
CCS(=O)(=O)c1ccc(OC2CCC(=O)CC2)c(-c2cn(C)c(=O)c3[nH]ccc23)c1 [Example 199, 4-{5-(ethylsulfonyl)-2-[(4-oxocyclohexyl)oxy]phenyl}-6-methyl-1,6-dihydro-7H-pyrrolo[2,3-c]pyridin-7-one]	3 min		94 min				1 min
CCS(=O)(=O)c1ccc(OC2CCS(=O)(=O)CC2)c(-c2cn(C)c(=O)c3[nH]ccc23)c1 [Example 265, 4-{2-[(1,1-dioxidotetrahydro-2H-thiopyran-4-yl)oxy]-5-(ethylsulfonyl)phenyl}-6-methyl-1,6-dihydro-7H-pyrrolo[2,3-c]pyridin-7-one]		> 120 min	> 120 min	9 nM	35.6 nM	> 3000 nM	
Cn1cc(-c2ccccc2Oc2ccccc2)c2cc(-c3ccccc3)[nH]c2c1=O [Example 88, 6-methyl-4-(2-phenoxyphenyl)-2-phenyl-1,6-dihydro-7H-pyrrolo[2,3-c]pyridin-7-one]		12 min	23 min	635 nM	236 nM	> 3000 nM	
Cn1cc(-c2cc(S(=O)(=O)Nc3ccc(F)cc3)ccc2OCC2CC2)c2cc[nH]c2c1=O [Example 347, 4-(cyclopropylmethoxy)-N-(4-fluorophenyl)-3-(6-methyl-7-oxo-6,7-dihydro-1H-pyrrolo[2,3-c]pyridin-4-yl)benzenesulfonamide]		6 min	4 min	15.6 nM	4 nM	83.9 nM	
Cn1cc(-c2cc(S(C)(=O)=O)ccc2OC2Cc3ccccc3C2)c2cc[nH]c2c1=O [Example 277, 4-[2-(2,3-dihydro-1H-inden-2-yloxy)-5-(methylsulfonyl)phenyl]-6-methyl-1,6-dihydro-7H-pyrrolo[2,3-c]pyridin-7-one]		5 min	4 min	6.3 nM	14.3 nM	21.1 nM	
CN(C)C(=O)CN1CCN(C(=O)c2ccc(Oc3ccc(F)cc3F)c(-c3cn(C)c(=O)c4[nH]ccc34)c2)CC1 [Example 127, 2-{4-[4-(2,4-difluorophenoxy)-3-(6-methyl-7-oxo-6,7-dihydro-1H-pyrrolo[2,3-c]pyridin-4-yl)benzoyl]piperazin-1-yl}-N,N-dimethylacetamide]	20 min	71 min	44 min				
Cn1cc(-c2cc(S(=O)(=O)N3CCCC3)ccc2Oc2ccc(F)cc2F)c2cc[nH]c2c1=O [Example 299, 4-[2-(2,4-difluorophenoxy)-5-(pyrrolidin-1-ylsulfonyl)phenyl]-6-methyl-1,6-dihydro-7H-pyrrolo[2,3-c]pyridin-7-one]		2 min	1 min	80.1 nM	5 nM	36 nM	
Cn1cc(-c2ccccc2Oc2ccccc2)c2cc[nH]c2c1=O [Example 1, 6-methyl-4-(2-phenoxyphenyl)-1,6-dihydro-7H-pyrrolo[2,3-c]pyridin-7-one]			9 min	136 nM	41 nM	137 nM	1 min
